Where two headings read alike, the source gives them in different places.

Holding throughout (format): in vivo
Data set [1] concerns S. aureus Smith (ATCC 13709). Kind of data set: Mouse systemic infection (septicemia) model, S. aureus Smith. The conditions noted are these: Staphylococcus aureus, CD-1 female mice; for responders at 3 mg/kg: ATCC13709, iv, IV 3 mg/kg one hour post infection, read-out: SA Smith septicemia survival IV (3 mg/kg); for responders at 3 mg/kg / responders at 30 mg/kg: 48 h, survival at 48 hours; for responders at 30 mg/kg: ATCC13709, po, PO 30 mg/kg one hour post infection, read-out: SA Smith septicemia survival PO (30 mg/kg); for ED50: ATCC13709, dose that prevents 50% of the mice from death, 48 hours. Here is the method:
Mouse Systemic Infection Protocol-S. aureus Smith Septicemia
Compounds were screened for antibacterial activity in vivo in a mouse systemic infection (septicemia) model. In the model, CD-1 female mice (18-22 grams) were injected IP with a S. aureus Smith (ATCC 13709) inoculum that results in 0% survival within 24 to 48 hours. The bacterial dose required to achieve this effect was previously established through virulence studies. At one hour post infection, mice received either […] IV or […] PO. Typically, six mice were treated per dose group. Animal survival was assessed and recorded for 48 hours. Percent survival at 48 hours was recorded and PD50 (mg/kg) was determined for each compound tested.

Data set [2] in a line: Pharmacokinetic studies in rats. The conditions noted are these: rat, plasma, male Sprague Dawley rats, fasted; for clearance: read-out: Cl, IV Rat PK; for bioavailability: oral 10 mg/kg vs IV 1 mg/kg, read-out: % F (oral bioavailability), Oral Rat PK; for Cmax: read-out: Cmax, IV Rat PK. Here is the method:
Pharmacokinetic Studies in Rats Test compounds were evaluated in fasted (no food for 18 hours prior to dosing) male Sprague Dawley rats (3 animals per group) by administration of 1 mg/kg intravenously into the jugular vein and […] by oral gavage. Ten plasma samples were drawn for each dosing route up to 24 hours into heparin-coated vacutainer tubes. The plasma concentrations of the test compounds were quantified by LC/MS/MS using an internal standards. WinNONLIN was used to determine PK parameters ±standard deviation (AUC, Cmax, CL, Vss and % oral bioavailabilty (% F) and are set forth in Table F.

Data set [3] has as its system Uropathogenic E. coli EC200. Kind of data set: Murine kidney infection model, uropathogenic E. coli EC200. The conditions noted are these: Escherichia coli, po, 36 h, BALB/c mice, read-out: EC200 UTI PO, log10 reduction in CFUs in the kidney versus untreated controls; for log reduction at 2 mg/kg: PO 2 mg/kg at 12 and 24 hours post infection. Here is the method: (§1) Kidney Infection Models for Uropathogenic E. coli EC200 and K. pneumoniae ESBL Isolate KP453
Compounds were tested in a BALB/c murine kidney infection model challenged with tetracycline-resistant E. coli strain uropathogenic […] via intravenous injection. […] For IV administration test compound was dosed at 3 mg/kg. Thirty-six hours following initiation of treatment, mice were euthanized and bacterial reduction in the kidney was quantified by plating kidney homogenates. Results are reported in Table D as log10 reduction in colony forming units (CFUs) in the kidney versus untreated controls (receiving no test compound).

Data set [4] relates to K. pneumoniae ESBL Isolate KP453. In words: Murine kidney infection model, K. pneumoniae ESBL isolate KP453. The conditions noted are these: Klebsiella pneumoniae, po, 36 h, BALB/c mice, PO 50 mg/kg at 9 and 24 hours post infection; read-out: KP453 ESBL UTI PO, log10 reduction in CFUs in the kidney versus untreated controls. Here is the method:
as §1
Compounds were also tested in BALB/c murine kidney infection model challenged with levofloxacin-resistant, ESBL^+ strain KP453 via intravenous injection with 2% carageenen. At 9 and 24 hours post infection mice were treated orally with 50 mg/kg of test compound. For IV administration, test compounds were dosed at 20 mg/kg. At 36 hours following initiation of treatment, mice were euthanized and bacterial reduction in the kidney was quantified by plating homogenates. Results are reported in Table D as log10 reduction in colony forming units (CFUs) in the kidney versus untreated controls (receiving no test compound).

Setting [5] is: IV, read-out: SA Smith septicemia PD50 IV.
The mark [6] stands for this setting: PO, read-out: SA Smith septicemia PD50 PO.
Setting [7] is: IV 1 mg/kg, read-out: AUC, IV Rat PK.
The mark [8] stands for this setting: oral gavage 10 mg/kg, read-out: AUC, Oral Rat PK.

On to `CN(C)[C@@H]1C(O)=C(C(N)=O)C(=O)[C@@]2(O)C(O)=C3C(=O)c4c(O)cc(CN5CCCC5(C)C)c(F)c4C[C@H]3C[C@@H]12` [Compound S2-4-12], for which, in data set [1], the responders at 3 mg/kg is 100% and the responders at 30 mg/kg worked out at 100%. Besides, in data set [1] (setting [5]), the ED50 was 0.69 mg/kg. Besides, the ED50 in data set [1] (setting [6]) stood at 2.1 mg/kg. Also, in data set [2] (IV 1 mg/kg), the clearance was found to be 21.3 mL/min/kg and the Cmax is 126 ng/mL. In addition, the bioavailability in data set [2] came to 14.6%. For the same molecule, in data set [2] (setting [7]), the area under the curve (AUC) is 754 ng·h/mL. The AUC in data set [2] (setting [8]) was 1160 ng·h/mL. Also, the log reduction at 2 mg/kg in data set [3] came to 2.51. The log reduction at 50 mg/kg in data set [4] was 2.15.

Turning to `CC1CCN(Cc2cc(O)c3c(c2F)C[C@H]2C[C@H]4[C@H](N(C)C)C(O)=C(C(N)=O)C(=O)[C@@]4(O)C(O)=C2C3=O)CC1` [Compound S2-4-19], the responders at 3 mg/kg in data set [1] was found to be 100%. Moreover, the responders at 30 mg/kg in data set [1] came to 83%. In addition, the values for the ED50 in data set [1] (setting [5]) and in data set [1] (setting [6]) were 1 mg/kg and 14.3 mg/kg, respectively. In addition, in data set [2] (IV 1 mg/kg), the clearance was 5 mL/min/kg. Also, the bioavailability in data set [2] was 14.9%. Also, the AUC came to 3320 ng·h/mL in data set [2] (setting [7]) and 4980 ng·h/mL in data set [2] (setting [8]). The Cmax in data set [2] (IV 1 mg/kg) is 518 ng/mL. For the same molecule, in data set [3], the log reduction at 2 mg/kg is 1.91. In data set [4], the log reduction at 50 mg/kg was found to be 1.27.

`CN(C)[C@@H]1C(O)=C(C(N)=O)C(=O)[C@@]2(O)C(O)=C3C(=O)c4c(O)cc(CN(C)C(C)(C)C5CC5)c(F)c4C[C@H]3C[C@@H]12` [Compound S2-4-29]: in data set [1], the responders at 3 mg/kg turned out to be 100%. Besides, in data set [1], the responders at 30 mg/kg was found to be 100%. Also, the ED50 in data set [1] (setting [5]) was 1 mg/kg; in data set [1] (setting [6]) it was 3.5 mg/kg. In addition, in data set [2] (IV 1 mg/kg), the clearance was 26.5 mL/min/kg. Besides, the bioavailability in data set [2] was 25.4%. The AUC in data set [2] (setting [7]) amounted to 616 ng·h/mL; in data set [2] (setting [8]), 1600 ng·h/mL. In addition, in data set [2] (IV 1 mg/kg), the Cmax was 112 ng/mL.

Consider `C[C@H]1CCCCN1Cc1cc(O)c2c(c1F)C[C@H]1C[C@H]3[C@H](N(C)C)C(O)=C(C(N)=O)C(=O)[C@@]3(O)C(O)=C1C2=O` [Compound S2-4-65], for which, in data set [1], the responders at 3 mg/kg was found to be 100% and the responders at 30 mg/kg is 100%. Moreover, in data set [1] (setting [6]), the ED50 was determined as 8.4 mg/kg. The log reduction at 2 mg/kg in data set [3] worked out at 3.18. Besides, the log reduction at 12 mg/kg in data set [3] (PO @ 12 mpk) came to 4.61. In addition, the log reduction at 50 mg/kg in data set [4] is 2.28.

On to `CN(C)[C@@H]1C(O)=C(C(N)=O)C(=O)[C@@]2(O)C(O)=C3C(=O)c4c(O)cc(CN5CCCC5)c(F)c4C[C@H]3C[C@@H]12` [Compound S3-5-5], for which, in data set [1], the responders at 3 mg/kg worked out at 100% and the responders at 30 mg/kg came to 100%. For the same molecule, the log reduction at 2 mg/kg in data set [3] was 2.26. In data set [4], the log reduction at 50 mg/kg turned out to be 1.01.

Turning to `CN(C)[C@@H]1C(O)=C(C(N)=O)C(=O)[C@@]2(O)C(O)=C3C(=O)c4c(O)cc(CN5CCCC5(C)C)c(Cl)c4C[C@H]3C[C@@H]12` [Compound S15-13-4], in data set [1], the responders at 3 mg/kg was found to be 100% and the responders at 30 mg/kg is 100%. In addition, in data set [1] (setting [6]), the ED50 turned out to be 6.2 mg/kg. For the same molecule, the log reduction at 2 mg/kg in data set [3] was 3.17. Further, the log reduction at 50 mg/kg in data set [4] came to 1.69.

Consider `CN(C)[C@@H]1C(O)=C(C(N)=O)C(=O)[C@@]2(O)C(O)=C3C(=O)c4c(O)cc(CN(C)C(C)(C)C)c(Cl)c4C[C@H]3C[C@@H]12` [Compound S15-13-15], for which, in data set [1], the responders at 3 mg/kg amounted to 100% and the responders at 30 mg/kg worked out at 100%. For the same molecule, the ED50 in data set [1] (setting [6]) stood at 3.5 mg/kg. In data set [2] (IV 1 mg/kg), the clearance was determined as 15.4 mL/min/kg and the Cmax stood at 154 ng/mL. Also, in data set [2], the bioavailability is 21%. In data set [2] (setting [7]), the AUC worked out at 1100 ng·h/mL. Besides, the AUC in data set [2] (setting [8]) amounted to 2260 ng·h/mL. In addition, in data set [3], the log reduction at 2 mg/kg was 2.82. Besides, the log reduction at 50 mg/kg in data set [4] worked out at 1.45.

For the molecule `CCN(Cc1cc(O)c2c(c1Cl)C[C@H]1C[C@H]3[C@H](N(C)C)C(O)=C(C(N)=O)C(=O)[C@@]3(O)C(O)=C1C2=O)[C@H](C)C(C)(C)C` [Compound S15-13-122], the log reduction at 2 mg/kg in data set [3] came to 2.64. Besides, in data set [4], the log reduction at 50 mg/kg worked out at 1.84.

With `CN(C)[C@@H]1C(O)=C(C(N)=O)C(=O)[C@@]2(O)C(O)=C3C(=O)c4c(O)cc(CN5CCCC5)c(Cl)c4C[C@H]3C[C@@H]12` [Compound S15-13-187], in data set [1], the responders at 3 mg/kg is 100% and the responders at 30 mg/kg stood at 100%. In addition, in data set [3] (PO @ 3 mpk), the log reduction at 3 mg/kg turned out to be 3.46.

As for `C[C@H]1CCCN1Cc1cc(O)c2c(c1Cl)C[C@H]1C[C@H]3[C@H](N(C)C)C(O)=C(C(N)=O)C(=O)[C@@]3(O)C(O)=C1C2=O` [Compound S15-13-194], in data set [1], the responders at 3 mg/kg came out at 100% and the responders at 30 mg/kg was found to be 100%. Also, the log reduction at 2 mg/kg in data set [3] was 3.44. The log reduction at 50 mg/kg in data set [4] came to 2.18.

As for `COc1c(CN2CCCC[C@@H]2C)cc(O)c2c1C[C@H]1C[C@H]3[C@H](N(C)C)C(O)=C(C(N)=O)C(=O)[C@@]3(O)C(O)=C1C2=O` [Compound S24-9-17], in data set [1], the responders at 3 mg/kg stood at 100% and the responders at 30 mg/kg was 100%. In addition, the log reduction at 2 mg/kg in data set [3] came to 2.61. Further, in data set [4], the log reduction at 50 mg/kg was 2.41.

As to `COc1c(CN2[C@H](C)CCC[C@@H]2C)cc(O)c2c1C[C@H]1C[C@H]3[C@H](N(C)C)C(O)=C(C(N)=O)C(=O)[C@@]3(O)C(O)=C1C2=O` [Compound S24-9-25], in data set [1], the responders at 3 mg/kg was 100% and the responders at 30 mg/kg turned out to be 100%. In addition, the log reduction at 2 mg/kg in data set [3] came to 2.99. The log reduction at 50 mg/kg in data set [4] turned out to be 1.71.

Take `CN(C)[C@@H]1C(O)=C(C(N)=O)C(=O)[C@@]2(O)C(O)=C3C(=O)c4c(O)cc(CN5CCCC5)c(C(F)(F)F)c4C[C@H]3C[C@@H]12` [Compound S25-11-1]: in data set [1], the responders at 3 mg/kg stood at 100% and the responders at 30 mg/kg was 100%. Besides, the log reduction at 2 mg/kg in data set [3] came to 3.97. Besides, the log reduction at 50 mg/kg in data set [4] came to 1.84.

In general, bioavailability refers to dose-corrected exposure relative to a reference, in per cent. For orientation: AUC means concentration integrated over time. One may read the Cmax as the highest concentration seen after dosing.
